Where no end group is shown, it is not given here.
T1: PTH/PTHrP receptor (Homo sapiens, UniProt Q03431)
T1 construct: expressed in transfected cells; host or cells: COS-7 cells, transient transfection, vector pcDNA-1
T1 sequence (Q03431 27-593): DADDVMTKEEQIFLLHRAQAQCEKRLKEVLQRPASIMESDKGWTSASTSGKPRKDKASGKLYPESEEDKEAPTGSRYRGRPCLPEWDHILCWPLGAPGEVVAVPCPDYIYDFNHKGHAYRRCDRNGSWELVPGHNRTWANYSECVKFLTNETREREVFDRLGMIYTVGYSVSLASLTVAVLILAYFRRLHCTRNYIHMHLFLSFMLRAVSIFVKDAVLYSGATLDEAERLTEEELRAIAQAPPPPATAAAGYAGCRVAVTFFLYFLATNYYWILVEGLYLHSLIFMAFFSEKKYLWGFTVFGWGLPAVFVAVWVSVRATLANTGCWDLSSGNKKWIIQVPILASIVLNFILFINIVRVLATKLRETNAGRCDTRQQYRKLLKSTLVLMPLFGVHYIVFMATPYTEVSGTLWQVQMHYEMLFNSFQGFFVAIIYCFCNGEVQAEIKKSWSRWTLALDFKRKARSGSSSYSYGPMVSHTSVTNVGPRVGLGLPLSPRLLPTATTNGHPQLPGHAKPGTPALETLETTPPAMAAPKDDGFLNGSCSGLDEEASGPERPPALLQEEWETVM


Assays:
PTH/PTHrP receptor = target: T1, PTH/PTHrP receptor; assay: Ligand-induced intracellular cAMP accumulation, COS-7 cells expressing human PTH/PTHrP receptor; assay type: cell-based; details: highest level of cAMP attained; basal 4.6 ± 0.2 not subtracted; 1h at room temperature
Experimental: (§1) The cDNAs encoding the human PTH/PTHrP receptor (Schipani, E. et al., Endocrinology 132:2157-2165 (1993)) and the human PTH-2 receptor (Usdin, T. et al., J. Biol. Chem. 270:15455-15458 (1995)) were carried on the expression vectors pcDNA-1 and pcDNAI/Amp (InVitrogen, San Diego, Calif.), respectively. COS-7 cells were cultured and transfected as described previously (Lee, C. et al., Mol. Endocrinol. 9:1269-1278 (1995)). Cells were transfected in 24-well plates using plasmid DNA (200 ng/well) purified by cesium chloride/ethidium bromide gradient centrifugation. Ligand binding and cAMP accumulation assays were performed three days after transfection, by which time the cell density reached 500,000±100,000 cells/well.
(§2) Transfected COS-7 cells were rinsed with […] of binding buffer. 200 μl of IBMX buffer (DMEM containing 2 mM IBMX, 1 mg/ml bovine serum albumin, 35 mM Hepes-NaOH, pH 7.4) and […] of binding buffer or binding buffer containing various amounts of a PTH or PTHrP analog were then added. The plates were incubated for 60 minutes at room temperature. The buffer was then withdrawn and the cells lysed by placing the plates on powdered dry ice and adding 0.5 ml of 50 mM HCl. The acid lysate was diluted 1/30 in dH2O, and an aliquot (5-50 μl) analyzed for cAMP content by radioimmunoassay. […] The cells were then incubated for 30 minutes at room temperature, and the resulting intracellular cAMP was measured by RIA. Data were analyzed using the AssayZap software (Elsevier Science Publishers BV, Cambridge, United Kingdom).

PTH-2 receptor = target: T2, PTH-2 receptor (Homo sapiens, UniProt P49190); assay: Ligand-induced intracellular cAMP accumulation, COS-7 cells expressing human PTH-2 receptor; assay type: cell-based; details: for cAMP accumulation Maximum, PTH-2 receptor: highest level of cAMP attained, basal 5.4 ± 0.3 not subtracted, 1h at room temperature; for cAMP agonist activity in words, PTH-2 receptor: COS-7 cells
T2 construct: expressed in transfected cells; host or cells: COS-7 cells, transient transfection, vector pcDNAI/Amp
Experimental: as §1, §2

human PTH-2 receptor = human PTH-2 receptor (human, UniProt P49190 25-550); assay: cell-based or functional assay
Sequence of human PTH-2 receptor (P49190 25-550): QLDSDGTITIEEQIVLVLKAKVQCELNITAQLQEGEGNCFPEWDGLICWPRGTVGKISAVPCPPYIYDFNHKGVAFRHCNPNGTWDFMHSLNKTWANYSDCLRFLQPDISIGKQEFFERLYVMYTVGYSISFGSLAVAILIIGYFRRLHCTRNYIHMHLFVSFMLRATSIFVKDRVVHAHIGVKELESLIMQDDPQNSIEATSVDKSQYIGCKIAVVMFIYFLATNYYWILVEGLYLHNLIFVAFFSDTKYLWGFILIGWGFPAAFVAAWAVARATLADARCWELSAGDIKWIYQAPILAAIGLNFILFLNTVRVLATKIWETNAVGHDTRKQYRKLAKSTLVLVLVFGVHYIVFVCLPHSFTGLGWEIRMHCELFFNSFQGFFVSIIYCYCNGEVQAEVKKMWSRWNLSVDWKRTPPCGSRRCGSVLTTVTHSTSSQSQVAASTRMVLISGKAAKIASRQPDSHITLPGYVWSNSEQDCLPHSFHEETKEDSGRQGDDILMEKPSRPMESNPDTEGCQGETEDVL

T2 sequence (P49190 25-550): as above

cAMP accumulation Maximum, PTH/PTHrP receptor (PTH/PTHrP receptor) [pmoles/well]	cAMP accumulation Maximum, PTH-2 receptor (PTH-2 receptor) [pmoles/well]	cAMP agonist activity in words, PTH-2 receptor (PTH-2 receptor)	cAMP EC50, fold higher than that of PTH-(1-34) (PTH-2 receptor; PTH-2 receptor) [fold]	cAMP accumulation EC50 (human PTH-2 receptor) [nM]	cAMP accumulation Maximum (human PTH-2 receptor) [pmoles/well]	Molecule
110 ± 19	7.1 ± 0.9	–	–	–	–	[H5, F23, Y34]hPTH-(1-34)NH2
109 ± 10	65 ± 7	as potent and efficacious as PTH-(1-34)	–	–	–	[Ile^5, Trp^23]PTHrP-(1-36) [[15, W23, Y36]hPTHrP-(1-36)NH2]
–	80 ± 5	full agonist	12	–	–	[Ile^5]PTHrP-(1-36) [[15, Y36]hPTHrP-(1-36)NH2]
123 ± 28	–	–	–	–	–	hPTH-(1-14)/[Y34]hPTHrP-(15-34)NH2 [Hybrid-2]
107 ± 17	6.7 ± 0.6	–	–	–	–	hPTHrP-(1-21)/[Y34]hPTH-(22-34)NH2 [Hybrid-4]
95 ± 9	11 ± 1	–	–	–	–	hPTHrP-(1-23)/[Y34]hPTH-(24-34)NH2 [Hybrid 3]
140 ± 17	5.3 ± 0.6	weak activity	–	–	–	hpTHrP-(1-14)/[Y34]hPTH-(15-34)NH2 [Hybrid-1]
133 ± 14	6.2 ± 0.4	–	–	–	–	hpTHrP-(1-18)/[Y34]hpTH-(19-34)NH2 [Hybrid-5]
–	–	–	–	> 1000	5.3	AVSEHQLLHDKGKSLNSMERVEWLRKKLQDVHNY-NH2 [Hybrid-1 hPTHrP-(1-14)/[Y34]hPTH-(15-34)NH2]
–	–	–	–	0.6	81	SVSEIQLMHNLGKHLNSMERVEWLRKKLQDVHNY-NH2 [[Tyr^34]hPTH-(1-34)NH2]
–	–	–	–	> 1000	7.1	SVSEHQLMHNLGKHLNSMERVEFLRKKLQDVHNY-NH2 [[H5, F23, Y34]hPTH-(1-34)NH2]
–	–	–	–	> 1000	10	SVSEHQLMHNLGKHLNSMERVEWLRKKLQDVHNY-NH2 [[H5, Y34]hPTH-(1-34)NH2]
–	–	–	–	> 1000	6.7	AVSEHQLLHDKGKSIQDLRRREWLRKKLQDVHNY-NH2 [Hybrid-4 hPTHrP-(1-21)/[Y34]hPTH-(22-34)NH2]
–	–	–	–	7	80	AVSEIQLLHDKGKSIQDLRRRFFLHHLIAEIHTAEY-NH2 [[I5, Y36]hPTHrP-(1-36)NH2]

Source: patent US6362163B1, “Parathyroid hormone-related peptide analogs” (The General Hospital Corporation, priority 1996, dated 2002)
